The source of these data is ChEMBL document CHEMBL1201862, “PubChem BioAssay data set” (2004).

Holding throughout (assay): DTP human tumour cell line panel, 48 h
Test [1] has as its system TK-10.
Test [2] deals with KM12.
Test [3] deals with M14.
For test [4], the system named is DLD-1.
Test [5] concerns SW-620.
Test [6] relates to HCC 2998.
Test [7] deals with EKVX.
The test system of test [8] is HCT-15.
Test [9] deals with SF-295.
The test system of test [10] is CAKI-1.
The test system of test [11] is UACC-62.
Test [12] relates to ACHN.
In test [13] the test system is HOP-62.
Test [14] has as its system A498.
Test [15] has as its system SK-MEL-5.

SMILES strings stand for the structures.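 All cell lines were grown in 96-well plates and treated with compound for 48 hours. At the GI50, growth is halved.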 Calls of active or inactive are those of the source. No stated cut-off is given here; in the data, active = GI50 up to about 1.1 µM and inactive = higher. A value given as a limit tells only on which side of the number the result lay.

As for `CC(C)C(Nc1c2ccccc2nc2ccccc12)C(=O)O` (stereo unspecified), the GI50 in test [1], in test [2], in test [3], in test [4], in [5] and in test [6] was > 100 µM (inactive) throughout. The GI50 is 67.8 µM (inactive) in test [7]; more than 100 µM in [8]; > 100 µM (inactive) in test [9]; > 100 µM (inactive) in [10]; > 100 µM (inactive) in test [11]; 49.2 µM (inactive) in test [12].
In the case of `O=C1NC(c2ccccc2)(c2ccccc2)C(=O)N1CCCCCCN1C(=O)NC(c2ccccc2)(c2ccccc2)C1=O`, the GI50 is 25 µM (inactive) in test [1]; > 100 µM (inactive) in [2]; 53.8 µM (inactive) in test [3]; 24.8 µM (inactive) in [13]; 25.5 µM (inactive) in [14]; 19.9 µM (inactive) in test [15]. Besides, the GI50 in [4] was > 100 µM (inactive); in test [5], 69.3 µM (inactive); in test [6], > 100 µM (inactive); in test [7], 39.4 µM (inactive); in [8], more than 100 µM; in test [9] it was 13.2 µM (inactive). For the same molecule, the values for the GI50 in [10], in test [11] and in test [12] were 48.5 µM (inactive), 57.7 µM (inactive) and 33.3 µM (inactive), respectively.
Take `CN1C(=O)C(Cl)(C(Cl)(Cl)S(=O)(=O)O)C(=O)c2ccccc21.c1ccncc1` (stereo unspecified): the GI50 in test [1], in test [2], in [3], in [13], in test [14] and in test [15] was > 100 µM (inactive) in each case. The GI50 in test [4], in test [5], in test [6], in test [7], in [9] and in test [10] was > 100 µM (inactive) throughout. The GI50 is > 100 µM (inactive) in test [11] and 76.4 µM (inactive) in [12].
For the molecule `CCN1CCC(O)(c2ccc(Cl)cc2)C(C(=O)c2ccc(Cl)cc2)C1` (stereo unspecified), the GI50 in test [1], in test [2], in [3], in test [14], in [15] and in test [4] was > 100 µM (inactive) throughout. Further, the GI50 in test [5] is 70.3 µM (inactive); in test [6], > 100 µM (inactive); in test [7], > 100 µM (inactive); in test [9], > 100 µM (inactive); in [11], > 100 µM (inactive); in test [12] it was > 100 µM (inactive).
Take `CCN(CC)c1ccc2c(c1)N=C1N=CC=CN1C2(c1ccc(N(C)C)cc1)c1ccc(N(C)C)cc1`: the GI50 in test [1] is 13 µM (inactive); in test [2], 4.42 µM (inactive); in [3] it was 3.32 µM (inactive); in test [13] it was 10.9 µM (inactive); in test [14] it was 17.5 µM (inactive); in test [15] it was 11.9 µM (inactive). In addition, the GI50 in test [4] is 4.53 µM (inactive); in [6], 3.24 µM (inactive); in test [7] it was 9.73 µM (inactive); in test [8] it was 10.9 µM; in [9], 3.64 µM (inactive); in test [10], 11.1 µM (inactive). Also, the GI50 is 10.7 µM (inactive) in test [11] and 4.5 µM (inactive) in test [12].
As to `O=C(N/C(=C\c1cccc([N+](=O)[O-])c1)c1nc2cc([N+](=O)[O-])ccc2[nH]1)c1ccccc1`, the GI50 is 93.3 µM (inactive) in test [1]; 29.6 µM (inactive) in test [2]; 38.9 µM (inactive) in [3]; 20.7 µM (inactive) in [15]; 28.4 µM (inactive) in [4]; 35.1 µM (inactive) in test [5]. Moreover, the GI50 in test [6] was 33.5 µM (inactive); in test [7] it was 51.9 µM (inactive); in test [8], 22.1 µM; in test [9] it was 40.4 µM (inactive); in [10], 30.4 µM (inactive); in test [11], 19.7 µM (inactive). Moreover, in test [12], the GI50 was 28.4 µM (inactive).
`COC(=O)C1=C(c2ccc(OC)c(OC)c2)OC(c2ccc(OC)c(OC)c2)C1` (stereo unspecified): the GI50 in test [1] was 43.2 µM (inactive); in test [2], 32.7 µM (inactive); in [3], 38.7 µM (inactive); in [13] it was 59.4 µM (inactive); in test [14], 12.7 µM (inactive); in [15], 15.6 µM (inactive). In addition, the GI50 was 5.93 µM (inactive) in test [4]; 35.3 µM (inactive) in test [5]; 66.1 µM (inactive) in [6]; 39.7 µM (inactive) in test [7]; 25.2 µM in test [8]; 27.6 µM (inactive) in test [9]. Moreover, the GI50 is 35.6 µM (inactive) in [11] and 25.4 µM (inactive) in test [12].
Consider `CCC12CCCN(Cc3ccccc3)C1c1c(n(C)c3ccccc13)C(C(=O)OC)C2` (stereo unspecified), for which the GI50 in test [1] is > 239 µM (inactive); in test [2], 85.3 µM (inactive); in test [13] it was 129 µM (inactive); in [15] it was 43.8 µM (inactive); in test [4], 212 µM (inactive); in [5], 115 µM (inactive). For the same molecule, the GI50 in [6] is 164 µM (inactive); in test [7], > 239 µM (inactive); in [8], 70.3 µM; in test [9] it was 75.7 µM (inactive); in test [10], 205 µM (inactive); in [11], > 239 µM (inactive). Further, the GI50 in [12] was 182 µM (inactive).
Turning to `O=[N+]([O-])/C=C/c1ccc(Cl)cc1Cl`, the GI50 is > 10 µM (inactive) in test [1]; 14.7 µM (inactive) in test [2]; 11.7 µM (inactive) in [3]; 14.2 µM (inactive) in [13]; 15.6 µM (inactive) in test [15]; 24.7 µM (inactive) in test [4]. For the same molecule, the GI50 was 12.1 µM (inactive) in test [5]; 15.5 µM (inactive) in [6]; 15 µM in test [8]; 17 µM (inactive) in test [9]; 16.3 µM (inactive) in test [10]; 15.7 µM (inactive) in test [11]. For the same molecule, in test [12], the GI50 is 16.8 µM (inactive).
Turning to `CNS(=O)(=O)NNS(=O)(=O)c1ccc2ccccc2c1`, the GI50 in test [1], in test [2], in test [3], in test [13], in test [14] and in test [15] was > 100 µM (inactive) in each case. In addition, the GI50 in [4] is > 100 µM (inactive); in [5] it was > 100 µM (inactive); in test [6], > 100 µM (inactive); in [7], > 100 µM (inactive); in [8], more than 100 µM; in test [9], > 100 µM (inactive). The GI50 in [10], in test [11] and in test [12] was > 100 µM (inactive) throughout.
Take `CS(=O)(=O)c1ccc(COP(N)(=O)N(CCCl)CCCl)cc1` (stereo unspecified): the GI50 in [1], in test [2], in test [3], in test [13], in [14] and in test [15] was > 100 µM (inactive) each time. Further, the GI50 in test [4] was > 100 µM (inactive); in [5], > 100 µM (inactive); in [6] it was > 100 µM (inactive); in test [8], more than 100 µM; in test [9], > 100 µM (inactive); in test [10] it was > 100 µM (inactive). The GI50 in test [11] and in test [12] was > 100 µM (inactive) in each case.
Take `CC[C@H](C)C(=O)O[C@H]1C[C@@H](C)C=C2C=C[C@H](C)[C@H](CC[C@@H]3C[C@@H](O)CC(=O)O3)[C@H]21` [LOVASTATIN]: the GI50 in test [1] was 16.2 µM (inactive); in test [2], > 30 µM (inactive); in test [3] it was 12.3 µM (inactive); in test [13], 13.1 µM (inactive); in test [14], 1.21 µM (inactive); in test [15], 6.7 µM (inactive). For the same molecule, the GI50 in test [4] was > 30 µM (inactive); in [5] it was 7.36 µM (inactive); in test [6], 15.1 µM (inactive); in test [7] it was > 30 µM (inactive); in test [8] it was 3.12 µM; in test [10], 1.17 µM (inactive). For the same molecule, the values for the GI50 in test [11] and in [12] were 1.53 µM (inactive) and 1.76 µM (inactive), respectively.
As to `COC(=O)c1ccccc1/N=C/c1ccc(N(CCC#N)S(=O)(=O)c2ccccc2)cc1`, the GI50 in test [1], in [2], in [3], in test [13], in test [14] and in [15] was > 100 µM (inactive) in each case. Besides, the GI50 is > 100 µM (inactive) in test [4]; > 100 µM (inactive) in test [5]; > 100 µM (inactive) in test [7]; more than 100 µM in test [8]; > 100 µM (inactive) in [9]; > 100 µM (inactive) in test [10]. Also, the GI50 in [11] and in test [12] was > 100 µM (inactive) throughout.
On to `COc1ccc(/C=N/N=C(\N)NO)cc1OC`, for which the GI50 in [1] is 56.4 µM (inactive); in test [2], 52.7 µM (inactive); in test [3] it was 27.9 µM (inactive); in test [13], 31.9 µM (inactive); in test [15], 15.2 µM (inactive); in test [4], 60.1 µM (inactive). Besides, the GI50 in test [5] was 65.2 µM (inactive); in [6], > 100 µM (inactive); in test [7] it was 26.2 µM (inactive); in test [8], 75.2 µM; in test [9], 46.9 µM (inactive); in test [10], 29.5 µM (inactive). Further, the GI50 is 23.3 µM (inactive) in [11] and 25.6 µM (inactive) in [12].
